The experiment deals with T1, human neutrophil elastase (HNE) (Homo sapiens, UniProt P08246).
T1 construct: purchased Sigma E8140
T1 sequence (P08246 30-267): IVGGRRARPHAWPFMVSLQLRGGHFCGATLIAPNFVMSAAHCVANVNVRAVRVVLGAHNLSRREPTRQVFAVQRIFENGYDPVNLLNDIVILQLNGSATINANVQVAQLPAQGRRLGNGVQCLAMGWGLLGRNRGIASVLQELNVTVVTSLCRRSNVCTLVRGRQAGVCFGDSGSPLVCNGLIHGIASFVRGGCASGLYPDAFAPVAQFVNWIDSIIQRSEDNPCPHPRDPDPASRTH
The experiment in a line: HNE enzyme assay (human neutrophil elastase enzyme activity, fluorogenic peptide substrate). It is filed as biochemical. The note with it: human leukocyte elastase 0.00072 U/mL; MeOSuc-Ala-Ala-Pro-Val-AMC 100 μM; 25° C., 30 minutes; at least two separate experiments; read-out: HNE inhibition (IC50 values). As to the method:
Compounds of this invention were tested for potency in a human neutrophil elastase (HNE) enzyme activity assay.
Assays were performed in 96-well plates in a total assay volume of 100 μL. The final concentration of elastase enzyme (human leukocyte elastase, Sigma E8140) was 0.00072 U/mL. The peptide substrate (MeOSuc-Ala-Ala-Pro-Val-AMC, Calbiochem #324740) was used at a final concentration of 100 μM. The final concentration of DMSO was 1% in the assay buffer (0.05M Tris.HCl, 0.1M NaCl, 0.1M CaCl2, 0.0005% brij-35, pH 7.5). The enzymatic reaction was started by addition of the enzyme and incubated at 25° C. for 30 minutes. After incubation, the reaction was stopped by addition of soybean trypsin inhibitor (Sigma T9003) at a final concentration of 50 μg/well. Fluorescence was measured using a Molecular Devices fluorescence plate reader using 380 nm excitation and 460 nm emission wavelengths.
A dose response to each compound was performed and the effect of the compound in each experiment was expressed as a percentage inhibition of the control enzyme fluorescence. Dose response curves were plotted and compound potency (IC50) was determined. Compounds were tested in at least two separate experiments.
For `COC(=O)C1=C(C)N(c2cccc(C(F)(F)F)c2)c2n[nH]c(=O)n2[C@H]1c1ccc(C#N)cc1OC` (racemic) [Example 33b], the IC50 – broadly, the concentration at which inhibition is half-maximal – is 20 to 100 nM.
Then `CC1=C(C#N)[C@@H](c2ccc(C#N)cc2C(O)CO)n2c(n[nH]c2=O)N1c1cccc(C(F)F)c1` (mixture of isomers) [Example 39d, (R) and (S)-5-[4-Cyano-2-(1,2-dihydroxy-ethyl)-phenyl]-8-(3-difluoromethyl-phenyl)-7-methyl-3-oxo-2,3,5,8-tetrahydro-[1,2,4]triazolo[4,3-a]pyrimidine-6-carbonitrile], with 20 to 100 nM.
With `COCCOc1cc(C#N)ccc1[C@@H]1C(C(=O)OC)=C(C)N(c2cccc(C(F)(F)F)c2)c2n[nH]c(=O)n21` (single isomer, unassigned) [Example 34a], the 50% inhibitory concentration (IC50) is under 20 nM.
Then `COCCOc1cc(C#N)ccc1[C@@H]1C(C(=O)OC)=C(C)N(c2cccc(C(F)(F)F)c2)c2n[nH]c(=O)n21` (single isomer, unassigned) [Example 34b], with 20 to 100 nM.
The value for `CC1=C(C#N)[C@@H](c2ccc(C#N)cc2C(O)CO)n2c(n[nH]c2=O)N1c1cccc(C(F)(F)F)c1` (single isomer, unassigned) [Example 35a] was under 20 nM; that for `CC1=C(C#N)[C@@H](c2ccc(C#N)cc2CCO)n2c(n[nH]c2=O)N1c1cccc(C(F)F)c1` (single isomer, unassigned) [Example 38a] was under 20 nM; that for `CC1=C(C#N)[C@@H](c2ccc(C#N)cc2CCO)n2c(n[nH]c2=O)N1c1cccc(C(F)F)c1` (single isomer, unassigned) [Example 38b] was 100 to 500 nM.
The value for `CC1=C(C#N)[C@@H](c2ccc(C#N)cc2C(O)CO)n2c(n[nH]c2=O)N1c1cccc(C(F)F)c1` (single isomer, unassigned) [Example 39a] was under 20 nM; that for `CC1=C(C#N)C(c2ccc(C#N)cc2C(O)CO)n2c(n[nH]c2=O)N1c1cccc(C(F)F)c1` (single isomer, unassigned) [Example 39b] was 100 to 500 nM.
Turning to `CC1=C(C#N)[C@@H](c2ccc(C#N)cc2CCO)n2c(n[nH]c2=O)N1c1cccc(C(F)(F)F)c1` [Example 36, (R)-5-[4-Cyano-2-(2-hydroxy-ethyl)-phenyl]-7-methyl-3-oxo-8-(3-trifluoromethyl-phenyl)-2,3,5,8-tetrahydro-[1,2,4]triazolo[4,3-a]pyrimidine-6-carbonitrile], the IC50 was under 20 nM.
Then `CC1=C(C#N)[C@@H](c2ccc(C#N)cc2CCS(C)(=O)=O)n2c(n[nH]c2=O)N1c1cccc(C(F)(F)F)c1` [Example 37, (R)-5-[4-Cyano-2-(2-methanesulfonyl-ethyl)-phenyl]-7-methyl-3-oxo-8-(3-trifluoromethyl-phenyl)-2,3,5,8-tetrahydro-[1,2,4]triazolo[4,3-a]pyrimidine-6-carbonitrile], with under 20 nM.
